Literature values as cited in PMC3314724 (Journal of Molecular Modeling, 2011).

What was measured:
[1] = system: human neutrophils
[2] = system: FPR1; conditions: FPR1 agonist class, peptide derivatives

Substance	EC50 [1] [nM]	Observed value (activity class) [2]
N-formyl-Met-Leu-Phe [fMLF]	~0.5	Active
N-formyl-Met-Leu-Phe-OMe [fMLF-OMe]		Active
N-formyl-Met-Leu-Ψ(COO) Phe-NHBzl [fMLΨ(COO)F-NHBzl]		Active
boc-cis-4-mer-captomethyl-Pro-Leu-Phe-OMe [boc-cis-4-mercaptomethyl-PLF-OMe]		Active
